Measured values taken from US20260262643A1, “HERBICIDAL BENZOXAZINES” (FMC CORPORATION, priority 2022, published 2026).

Experiments:
corn [1] = assay: Test C preemergence; format: in vivo, Zea mays
How it was run: (§1)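 Visual injury ratings on a 0–100 scale (100 = complete control) were made against untreated controls 10 days after treatment in the greenhouse. Compounds, formulated with surfactant in non-phytotoxic solvent, were sprayed on soil preemergence or onto one- to two-leaf plants 2–10 cm tall postemergence.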

sedge, umbrella = assay: Test D flooded paddy test; format: in vivo, Cyperus difformis; settings: 250 g ai/ha, applied to paddy water, visual rating after 13 to 14 days, scale 0 to 100 (0 no effect, 100 complete control)
How it was run: (§2)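 Plants grown to the 2-leaf stage; pots flooded to 3 cm above soil at treatment and held at that depth throughout. Test compounds applied directly to the paddy water. After 13 to 14 days in a greenhouse, response was rated visually versus controls on a 0 (no effect) to 100 (complete control) scale.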

rice = assay: Test D flooded paddy test; format: in vivo, Oryza sativa; settings: 250 g ai/ha, applied to paddy water, visual rating after 13 to 14 days, scale 0 to 100 (0 no effect, 100 complete control)
How it was run: as §2

corn [2] = assay: Test C postemergence; format: in vivo, Zea mays; settings: 10 days, 0 to 100 scale (0 no effect, 100 complete control)
How it was run: as §1

wheat [3] = assay: Test C postemergence; format: in vivo, Triticum aestivum; settings: 10 days, 0 to 100 scale (0 no effect, 100 complete control)
How it was run: as §1

soybean [4] = assay: Test C postemergence; format: in vivo, Glycine max; settings: 10 days, 0 to 100 scale (0 no effect, 100 complete control)
How it was run: as §1

barnyardgrass [5] = assay: Test C postemergence; format: in vivo, Echinochloa crusgalli; settings: 10 days, 0 to 100 scale (0 no effect, 100 complete control)
How it was run: as §1

barnyardgrass [6] = assay: Test D flooded paddy test; format: in vivo, Echinochloa crus-galli; settings: 250 g ai/ha, applied to paddy water, visual rating after 13 to 14 days, scale 0 to 100 (0 no effect, 100 complete control)
How it was run: as §2

green foxtail [7] = assay: Test C preemergence; format: in vivo, Setaria viridis
How it was run: as §1

oat, wild = assay: Test C postemergence; format: in vivo, Avena fatua; settings: 10 days, 0 to 100 scale (0 no effect, 100 complete control)
How it was run: as §1

wheat [8] = assay: Test C preemergence; format: in vivo, Triticum aestivum
How it was run: as §1

green foxtail [9] = assay: Test C postemergence; format: in vivo, Setaria viridis; settings: 10 days, 0 to 100 scale (0 no effect, 100 complete control)
How it was run: as §1

barnyardgrass [10] = assay: Test C preemergence; format: in vivo, Echinochloa crusgalli
How it was run: as §1

ryegrass, Italian [11] = assay: Test C postemergence; format: in vivo, Lolium multiflorum; settings: 10 days, 0 to 100 scale (0 no effect, 100 complete control)
How it was run: as §1

soybean [12] = assay: Test C preemergence; format: in vivo, Glycine max
How it was run: as §1

ragweed [13] = assay: Test C postemergence; format: in vivo, Ambrosia artemisiifolia; settings: 10 days, 0 to 100 scale (0 no effect, 100 complete control)
How it was run: as §1

ryegrass, Italian [14] = assay: Test C preemergence; format: in vivo, Lolium multiflorum
How it was run: as §1

pigweed, palmer [15] = assay: Test C preemergence; format: in vivo, Amaranthus palmeri
How it was run: as §1

ragweed [16] = assay: Test C preemergence; format: in vivo, Ambrosia artemisiifolia
How it was run: as §1

ducksalad = assay: Test D flooded paddy test; format: in vivo, Heteranthera limosa; settings: 250 g ai/ha, applied to paddy water, visual rating after 13 to 14 days, scale 0 to 100 (0 no effect, 100 complete control)
How it was run: as §2

blackgrass [17] = assay: Test C preemergence; format: in vivo, Alopecurus myosuroides
How it was run: as §1

pigweed, palmer [18] = assay: Test C postemergence; format: in vivo, Amaranthus palmeri; settings: 10 days, 0 to 100 scale (0 no effect, 100 complete control)
How it was run: as §1

kochia [19] = assay: Test C preemergence; format: in vivo, Bassia scoparia
How it was run: as §1

galium = assay: Test C postemergence; format: in vivo, Galium aparine; settings: 10 days, 0 to 100 scale (0 no effect, 100 complete control)
How it was run: as §1

kochia [20] = assay: Test C postemergence; format: in vivo, Bassia scoparia; settings: 10 days, 0 to 100 scale (0 no effect, 100 complete control)
How it was run: as §1

blackgrass [21] = assay: Test C postemergence; format: in vivo, Alopecurus myosuroides; settings: 10 days, 0 to 100 scale (0 no effect, 100 complete control)
How it was run: as §1

horseweed = assay: Test C postemergence; format: in vivo, Erigeron canadensis; settings: 500 g ai/ha, postemergence, 10 days, 0 to 100 scale (0 no effect, 100 complete control)
How it was run: as §1

[22] = 500 g ai/ha, preemergence, 0 to 100 scale (0 no effect, 100 complete control)
[23] = Preemergence, 125 g ai/ha, 0 to 100 scale, 0 no effect, 100 complete control

CC(=O)c1ncn(-c2ccc(C)c(C(=O)N3C[C@H](C)Oc4c(Cl)cccc43)c2)n1 [Compound 360]
30: Plant response rating, Wheat (wheat [3]; Postemergence, 125 g ai/ha) | Plant response rating, Oat, Wild (oat, wild; Postemergence, 125 g ai/ha) | Plant response rating, Pigweed, Palmer (pigweed, palmer [15]; [23]) | Plant response rating, Horseweed (horseweed)
70: Corn plant response rating (corn [1]; [22]) | Plant response rating, Ryegrass, Italian (ryegrass, Italian [11]; Postemergence, 125 g ai/ha) | Plant response rating, Kochia (kochia [20]; 500 g ai/ha, postemergence)
45: Plant response rating, Barnyardgrass (Flood) (barnyardgrass [6])
15: Plant response rating, Rice (Flood) (rice)
90: Plant response rating, Sedge, Umbrella (Flood) (sedge, umbrella) | Plant response rating, Corn (corn [2]; 500 g ai/ha, postemergence) | Plant response rating, Corn (corn [2]; Postemergence, 125 g ai/ha) | Plant response rating, Barnyardgrass (barnyardgrass [5]; Postemergence, 125 g ai/ha) | Plant response rating, Oat, Wild (oat, wild; 500 g ai/ha, postemergence) | Plant response rating, Foxtail, Green (green foxtail [9]; 500 g ai/ha, postemergence) | Plant response rating, Foxtail, Green (green foxtail [9]; Postemergence, 125 g ai/ha) | Ryegrass, Italian plant response rating (ryegrass, Italian [14]; [22]) | Pigweed, Palmer plant response rating (pigweed, palmer [15]; [22]) | Plant response rating, Pigweed, Palmer (pigweed, palmer [18]; 500 g ai/ha, postemergence) | Plant response rating, Blackgrass (blackgrass [21]; 500 g ai/ha, postemergence)
50: Plant response rating, Wheat (wheat [3]; 500 g ai/ha, postemergence) | Plant response rating, Ragweed (ragweed [13]; Postemergence, 125 g ai/ha)
20: Plant response rating, Kochia (kochia [19]; [23]) | Plant response rating, Kochia (kochia [20]; Postemergence, 125 g ai/ha)
100: Plant response rating, Soybean (soybean [4]; 500 g ai/ha, postemergence) | Plant response rating, Soybean (soybean [4]; Postemergence, 125 g ai/ha) | Plant response rating, Barnyardgrass (barnyardgrass [5]; 500 g ai/ha, postemergence) | Foxtail, Green plant response rating (green foxtail [7]; [22]) | Plant response rating, Foxtail, Green (green foxtail [7]; [23]) | Barnyardgrass plant response rating (barnyardgrass [10]; [22]) | Plant response rating, Barnyardgrass (barnyardgrass [10]; [23]) | Plant response rating, Ryegrass, Italian (ryegrass, Italian [11]; 500 g ai/ha, postemergence) | Soybean plant response rating (soybean [12]; [22]) | Ragweed plant response rating (ragweed [16]; [22]) | Plant response rating, Ducksalad (Flood) (ducksalad) | Blackgrass plant response rating (blackgrass [17]; [22]) | Plant response rating, Galium (galium; 500 g ai/ha, postemergence) | Plant response rating, Galium (galium; Postemergence, 125 g ai/ha)
80: Wheat plant response rating (wheat [8]; [22]) | Plant response rating, Soybean (soybean [12]; [23]) | Plant response rating, Ragweed (ragweed [13]; 500 g ai/ha, postemergence) | Plant response rating, Ryegrass, Italian (ryegrass, Italian [14]; [23]) | Plant response rating, Ragweed (ragweed [16]; [23]) | Plant response rating, Blackgrass (blackgrass [17]; [23]) | Kochia plant response rating (kochia [19]; [22]) | Plant response rating, Blackgrass (blackgrass [21]; Postemergence, 125 g ai/ha)
60: Plant response rating, Corn (corn [1]; [23]) | Plant response rating, Pigweed, Palmer (pigweed, palmer [18]; Postemergence, 125 g ai/ha)
40: Plant response rating, Wheat (wheat [8]; [23])
